Read-outs that look alike come from different tables or passages of the source.
Experiments:
α-D-glucosidase [1] = assay: Glycosidase inhibition: α-D-glucosidase (Bacillus); assay type: biochemical, Bacillus stearothermophilus; conditions: 1 mg/ml; pH 6.0, 20° C
Experimental: (§1) Inhibition of the N-linked glycan trimming enzymes alpha-Glucosidases I and II or alpha-Mannosidases I and II are thought to be related to the anti-viral activity of castanospermine (Compound 104) and 1-deoxynojirimycin (Compound 193). […] All enzymes were purchased from Sigma, as were the appropriate p-nitrophenyl substrates. Assays were carried out in microtitre plates. Enzymes were assayed in 0.1M citric acid/0.2M di-sodium hydrogen phosphate (McIlvaine) buffers at the optimum pH for the enzyme. All assays were carried out at 20° C. For screening assays the incubation assay consisted of 10 μl of enzyme solution, 10 μl of inhibitor solution (made up in water at 5 mM) and 50 μl of the appropriate 5 mM p-nitrophenyl substrate (3.57 mM final conc.) made up in McIlvaine buffer at the optimum pH for the enzyme.
(§2) The reactions were stopped with 0.4M glycine (pH 10.4) during the exponential phase of the reaction, which was determined at the beginning of the assay using blanks with water, which were incubated for a range of time periods to measure the reaction rate using 5 mM substrate solution. Endpoint absorbances were read at 405 nm with a Bio-rad microtitre plate reader (Benchmark). Water was substituted for the inhibitors in the blanks.

α-D-galactosidase = biological target: T1, α-D-galactosidase (Coffea arabica, UniProt Q42656); assay: Glycosidase inhibition: α-D-galactosidase; assay type: biochemical, Green coffee beans (Coffea sp.); conditions: 1 mg/ml; pH 6.5, 20° C
T1 construct: purchased Sigma
T1 sequence (Q42656 16-378): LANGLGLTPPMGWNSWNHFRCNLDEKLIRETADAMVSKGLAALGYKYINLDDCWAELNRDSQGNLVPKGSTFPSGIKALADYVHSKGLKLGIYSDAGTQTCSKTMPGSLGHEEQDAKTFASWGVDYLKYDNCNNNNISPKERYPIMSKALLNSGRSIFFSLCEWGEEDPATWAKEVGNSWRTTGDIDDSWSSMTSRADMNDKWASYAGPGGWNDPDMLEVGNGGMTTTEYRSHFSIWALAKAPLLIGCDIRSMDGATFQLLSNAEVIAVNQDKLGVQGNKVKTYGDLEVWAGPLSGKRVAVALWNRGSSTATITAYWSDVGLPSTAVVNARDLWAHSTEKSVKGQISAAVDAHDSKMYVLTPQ
Experimental: as §1, §2

BVDV = BVDV plaque inhibition assay; assay type: cell-based, bovine diarrhoea virus (BVDV); conditions: for IC50: Bovine viral diarrhea virus isolates and strains, in Bos taurus; for % untreated control: Example 5
Experimental: BVDV Plaque Assay: In the absence of a suitable cell culture system able to support replication of human HCV, bovine diarrhoea virus (BVDV) is an accepted cell culture model. HCV and BVDV share a significant degree of local protein homology, a common replication strategy and probably the same subcellular location for viral envelopment.
(§3) The materials and procedures were as described in Whitby et al. (2004) Antiviral Chemistry and Chemotherapy 15: 141-151. In brief, MDBK cells were seeded in 96 well plates and allowed to reach confluency. Monolayers were exposed to between 14 and 45 plaque forming units of BVDV and adsorption allowed to take place. Infected monolayers were then exposed to the test compound, medium added containing low gelling-point agarose and allowed to set. The plates were then incubated for 4 days post infection, fixed in 5% formalin and stained with 0.5% neutral red after removal of the agarose layer. Anti-viral activity was measured by determination of plaque inhibition and expressed as IC50 values. Castanospermine, a known viral inhibitor, was used as a positive control.
For these assays a confluent monolayer of MDBK cells is produced in a flat bottomed well of a tissue culture plate. The monolayer is infected with BVDV. Sufficient virus is added to eventually form approximately 20-30 plaques. After allowing approximately 1 hr for the virus to infect, the cells are washed and liquid agar is added and allowed to set as a thin layer over the cell surface (the ‘overlay’). The infected cells are then left for a period of days to allow the virus to replicate and cells to shed virus, detach or lyse. Cells in the immediate vicinity of the initial virus infection are therefore infected—localized by the agar layer.
The test compound is added at appropriate dilutions with the virus. An antiviral effect of the compound is scored by the reduction of plaque number or size. The concentration of compound required to produce a 50% (IC50) reduction of plaque number or size is noted. Controls of no compound added are included. A control of a known antiviral compound (castanospermine) is carried out to calibrate the antiviral activity.
Plaque Assay: The materials and procedures were as described in Whitby et al. (2004) Antiviral Chemistry and Chemotherapy 15: 141-151.
as §3, with “In” for “The materials and procedures were as described in Whitby et al. (2004) Antiviral Chemistry and Chemotherapy 15: 141-151. In”, “Castanospermine (Compound 104),” for “Castanospermine,”

HCV = assay: Cell-based HCV infection NS3 protease FRET assay in DMSO-Huh7 cells; set-up: species or system hepatitis C virus (HCV); conditions: DMSO-Huh7 cells infected with HCV at 0.05 ffu/cell; HCV NS3 protein levels by FRET, day 6 p.i.
β-D-galactosidase = assay: Glycosidase inhibition: β-D-galactosidase; assay type: biochemical, Bovine liver; conditions: 1 mg/ml; pH 7.3, 20° C
Experimental: as §1, §2

β-D-glucosidase = assay: Glycosidase inhibition: β-D-glucosidase; assay type: biochemical, Almonds (Prunus sp.); conditions: 1 mg/ml; pH 5.0, 20° C
Experimental: as §1, §2

Naringinase = assay: Glycosidase inhibition: Naringinase; assay type: biochemical, Penecillium decumbens; conditions: 1 mg/ml; pH 4.0, 20° C
Experimental: as §1, §2

α-D-glucosidase [2] = biological target: T2, α-D-glucosidase (Saccharomyces cerevisiae, UniProt P53341); assay: Glycosidase inhibition: α-D-glucosidase (yeast); assay type: biochemical, Saccharomyces cerevisiae (Baker's yeast); conditions: 1 mg/ml; pH 6.0, 20° C; read-out: % inhibition α-gluc (yeast)
T2 construct: purchased Sigma
T2 sequence (P53341 whole entry): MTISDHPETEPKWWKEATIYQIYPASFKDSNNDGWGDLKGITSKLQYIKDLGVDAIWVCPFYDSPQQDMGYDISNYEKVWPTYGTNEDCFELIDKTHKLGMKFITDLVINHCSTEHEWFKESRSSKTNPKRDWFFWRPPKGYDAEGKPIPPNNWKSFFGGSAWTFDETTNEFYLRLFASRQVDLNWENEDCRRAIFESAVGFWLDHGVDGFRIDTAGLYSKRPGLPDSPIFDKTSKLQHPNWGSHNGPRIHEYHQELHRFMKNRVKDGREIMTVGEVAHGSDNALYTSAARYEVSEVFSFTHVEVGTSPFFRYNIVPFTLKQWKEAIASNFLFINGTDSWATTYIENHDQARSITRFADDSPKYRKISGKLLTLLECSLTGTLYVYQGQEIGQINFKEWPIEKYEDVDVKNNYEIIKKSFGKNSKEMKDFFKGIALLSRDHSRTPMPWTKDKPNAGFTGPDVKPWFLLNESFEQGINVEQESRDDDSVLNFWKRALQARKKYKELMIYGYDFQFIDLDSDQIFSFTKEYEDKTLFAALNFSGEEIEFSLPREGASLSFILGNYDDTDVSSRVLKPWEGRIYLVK
Experimental: as §1, §2

[3] = test system: N-acetyl-β-D-glucosaminidase; assay: Glycosidase inhibition: N-acetyl-β-D-glucosaminidase; assay type: biochemical, Bovine kidney; conditions: 1 mg/ml; pH 4.25, 20° C
Experimental: as §1, §2

α-D-glucosidase [4] = biological target: T3, α-D-glucosidase (Oryza sativa subsp. japonica, UniProt Q653V7); assay: Glycosidase inhibition: α-D-glucosidase (rice); assay type: biochemical, rice (Oryza sativa); conditions: 1 mg/ml; pH 6.0, 20° C; read-out: % inhibition α-gluc (rice)
T3 construct: purchased Sigma
T3 sequence (Q653V7 34-885): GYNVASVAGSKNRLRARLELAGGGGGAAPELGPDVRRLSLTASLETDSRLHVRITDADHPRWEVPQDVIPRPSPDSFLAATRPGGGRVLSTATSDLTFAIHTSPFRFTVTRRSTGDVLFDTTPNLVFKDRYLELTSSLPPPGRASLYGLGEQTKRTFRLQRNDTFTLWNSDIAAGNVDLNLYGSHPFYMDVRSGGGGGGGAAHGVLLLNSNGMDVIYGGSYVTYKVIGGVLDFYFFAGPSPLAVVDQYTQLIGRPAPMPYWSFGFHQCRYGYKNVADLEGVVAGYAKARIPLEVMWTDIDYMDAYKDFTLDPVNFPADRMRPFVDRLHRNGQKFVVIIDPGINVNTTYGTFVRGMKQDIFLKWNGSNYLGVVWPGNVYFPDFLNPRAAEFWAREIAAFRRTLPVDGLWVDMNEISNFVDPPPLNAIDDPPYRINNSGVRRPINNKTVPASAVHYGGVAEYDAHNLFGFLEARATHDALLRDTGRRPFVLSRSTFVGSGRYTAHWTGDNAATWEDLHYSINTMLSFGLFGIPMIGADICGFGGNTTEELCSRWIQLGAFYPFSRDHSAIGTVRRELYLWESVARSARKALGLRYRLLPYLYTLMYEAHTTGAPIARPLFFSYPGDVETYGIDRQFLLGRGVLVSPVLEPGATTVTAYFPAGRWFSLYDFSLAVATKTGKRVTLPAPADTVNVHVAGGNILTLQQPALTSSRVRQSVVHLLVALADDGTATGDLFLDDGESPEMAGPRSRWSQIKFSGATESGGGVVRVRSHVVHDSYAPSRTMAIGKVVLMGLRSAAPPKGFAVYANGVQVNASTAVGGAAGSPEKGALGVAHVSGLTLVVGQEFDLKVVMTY
Experimental: as §1, §2

[5] = MDBK, 96 h, read-out: IC50 (μg/ml)
[6] = Examples 1-3, 50% reduction of plaque number or size, MDBK cells, read-out: IC50 (μg/ml)

CC[C@@H]1N[C@@H](CO)[C@H](O)[C@@H](O)[C@@H]1O [Compound 23, (2S,3R,4S,5S,6S)-2-ethyl-6-(hydroxymethyl)piperidine-3,4,5-triol]
% inhibition α-gluc (Bacillus) (α-D-glucosidase [1]): 0%
inhibition at 1000 µg/mL (α-D-galactosidase): 0%
IC50 (BVDV; MDBK, 96 h, read-out: IC50): 420 µM
IC50 (BVDV; [5]): 80 µg/mL
% untreated control (BVDV; dose 32 μg/ml (0.17 mM)): 83%
% untreated control (BVDV; dose 63 μg/ml (0.33 mM)): 56%
% untreated control (BVDV; dose 125 μg/ml (0.65 mM)): 47%
% untreated control (BVDV; dose 250 μg/ml (1.30 mM)): 35%
% untreated control (BVDV; dose 500 μg/ml (2.60 mM)): 22%
Ave % inhibition (HCV): + (+: ≦19%)
% inhibition β-galactosidase (β-D-galactosidase): 53%
% inhibition β-glucosidase (β-D-glucosidase): 28%
% inhibition Naringinase (Naringinase): 0%
inhibition at 1000 µg/mL (α-D-glucosidase [2]): 0%
% inhibition N-acetyl-β-gluc [3]: 0%
inhibition at 1000 µg/mL (α-D-glucosidase [4]): 66%

CC[C@@H](O)[C@H]1N[C@H](CO)[C@@H](O)[C@@H]1O [Compound 62, (2R,3R,4R,5R)-2-(hydroxymethyl)-5-((R)-1-hydroxypropyl)pyrrolidine-3,4-diol]
% inhibition α-gluc (Bacillus) (α-D-glucosidase [1]): 65%
inhibition at 1000 µg/mL (α-D-galactosidase): 0%
IC50 (BVDV; [6]): 16.7 µg/mL
Ave % inhibition (HCV): + (+: ≦19%)
% inhibition β-galactosidase (β-D-galactosidase): 100%
% inhibition β-glucosidase (β-D-glucosidase): 100%
% inhibition Naringinase (Naringinase): 37%
inhibition at 1000 µg/mL (α-D-glucosidase [2]): 0%
% inhibition N-acetyl-β-gluc [3]: 20%
inhibition at 1000 µg/mL (α-D-glucosidase [4]): 32%

CC(O)[C@H](O)[C@H]1N[C@H](CO)[C@@H](O)[C@@H]1O (stereo partly drawn) [Compound 63, (2R,3R,4R,5R)-2-((1R)-1,2-dihydroxypropyl)-5-(hydroxymethyl)pyrrolidine-3,4-diol]
% inhibition α-gluc (Bacillus) (α-D-glucosidase [1]): 36%
inhibition at 1000 µg/mL (α-D-galactosidase): 0%
IC50 (BVDV; [6]): 87.2 µg/mL
Ave % inhibition (HCV): + (+: ≦19%)
% inhibition β-galactosidase (β-D-galactosidase): 93%
% inhibition β-glucosidase (β-D-glucosidase): 93%
% inhibition Naringinase (Naringinase): 0%
inhibition at 1000 µg/mL (α-D-glucosidase [2]): 0%
% inhibition N-acetyl-β-gluc [3]: 0%
inhibition at 1000 µg/mL (α-D-glucosidase [4]): 41%

O[C@H]1[C@H](O)[C@@H](O)CN2CC[C@H](O)[C@H]12 [Compound 104, Castanospermine, reference compound]
% inhibition α-gluc (Bacillus) (α-D-glucosidase [1]): 0%
inhibition at 1000 µg/mL (α-D-galactosidase): 0%
IC50 (BVDV; MDBK, 96 h, read-out: IC50): 120 µM
IC50 (BVDV; [5]): 22.5 µg/mL
IC50 (BVDV; [6]): 15.6 µg/mL
% untreated control (BVDV; dose 6.0 μg/ml (0.03 mM)): 98%
% untreated control (BVDV; dose 12.5 μg/ml (0.07 mM)): 67%
% untreated control (BVDV; dose 25.0 μg/ml (0.13 mM)): 46%
% untreated control (BVDV; dose 50.0 μg/ml (0.26 mM)): 12%
% untreated control (BVDV; dose 100.0 μg/ml (0.53 mM)): 1.1%
% inhibition β-galactosidase (β-D-galactosidase): 16%
% inhibition β-glucosidase (β-D-glucosidase): 88%
% inhibition Naringinase (Naringinase): 39%
inhibition at 1000 µg/mL (α-D-glucosidase [2]): 0%
% inhibition N-acetyl-β-gluc [3]: 0%
inhibition at 1000 µg/mL (α-D-glucosidase [4]): 90%

OC[C@@H]1NC[C@H](O)[C@@H]1O [Compound 167, (2S,3R,4S)-2-(hydroxymethyl)pyrrolidine-3,4-diol]
% inhibition α-gluc (Bacillus) (α-D-glucosidase [1]): 35%
inhibition at 1000 µg/mL (α-D-galactosidase): 32%
IC50 (BVDV; [6]): 57.6 µg/mL
% inhibition β-galactosidase (β-D-galactosidase): 0%
% inhibition β-glucosidase (β-D-glucosidase): 22%
% inhibition Naringinase (Naringinase): 50%
inhibition at 1000 µg/mL (α-D-glucosidase [2]): 0%
% inhibition N-acetyl-β-gluc [3]: 19%
inhibition at 1000 µg/mL (α-D-glucosidase [4]): 58%

Reference: patent US20110195929A1, “COMPOUNDS FOR THE TREATMENT OF FLAVIVIRAL INFECTIONS” (SUMMIT CORPORATION PLC, priority 2008, published 2011)
